Structures are written as SMILES.

The target of test [1] is T1, PPARγ (peroxisome proliferator-activated receptor γ) (Homo sapiens, UniProt P37231).
T1 construct: gene PPARG
T1 sequence (P37231 232-505 limits assumed): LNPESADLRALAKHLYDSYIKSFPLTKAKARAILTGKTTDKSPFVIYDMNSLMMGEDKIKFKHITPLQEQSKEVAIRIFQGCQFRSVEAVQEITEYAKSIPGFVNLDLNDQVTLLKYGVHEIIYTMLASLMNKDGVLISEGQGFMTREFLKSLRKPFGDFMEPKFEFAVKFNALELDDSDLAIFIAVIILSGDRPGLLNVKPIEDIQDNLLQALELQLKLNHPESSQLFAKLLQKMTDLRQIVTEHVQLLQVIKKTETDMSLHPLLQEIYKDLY
Description: Gal4-PPARγ-LBD one-hybrid luciferase reporter assay in HEK293 cells (partial agonist). In kind it is cell-based.

The target of test [2] is T1, PPARγ (peroxisome proliferator-activated receptor γ). The test is described as follows: Gal4-PPARγ reporter assay in HEK293 cells, antagonism of […] pioglitazone. In kind it is cell-based.

`C=CCc1ccc(O)c(-c2cc(CC=C)c(CCC/C=C\Cc3ccc(O)cc3)cc2O)c1` [III, Sesqui magnolol A] returned an EC50 in test [1] of 1070 nM. In turn, `C=CCc1ccc(O)c(-c2cc(C/C=C\CCCc3cc(O)ccc3CC=C)ccc2O)c1` [IV, Sesqui magnolol B] returned an EC50 in test [1] of 770 nM. On to `C=CCc1ccc(O)cc1CCC/C=C\Cc1ccc(O)cc1` [V, Truncated magnolol dimer], for which the “Gal4-PPARγ reporter assay in HEK293 cells, antagonism of 10 μM pioglitazone” value in test [2] is “V showed a dose-dependent inhibition of the pioglitazone induced PPARγ-Gal4 activation”.
